Counter-ions that a name gives are not always drawn.

As usually defined, the melting point is the temperature, or range, at which the solid turns liquid. `Nc1ccc(CCNc2ncnc3c2ccn3Cc2cncc(Br)c2)cc1` [Example 11, [2-(4-Amino-phenyl)-ethyl]-[7-(5-bromo-pyridin-3-ylmethyl)-7H-pyrrolo[2,3-d]pyrimidin-4-yl]-amine] gave a melting point of 158.8 to 160.9 °C.
Then `Cc1c(C)n(Cc2ccccc2)c2ncnc(NCCc3ccc(NC(=O)c4ccccc4)cc3)c12` [Example 50, N-{4-[2-(7-Benzyl-5,6-dimethyl-7H-pyrrolo[2,3-d]pyrimidin-4-ylamino)-ethyl]-phenyl}-benzamide], with 180 to 182 °C; and `CCN(CC)C(=O)Nc1ccc(CCNc2ncnc3c2c(C)c(C)n3Cc2cccc(Cl)c2)cc1` [Example 52, 3-(4-{2-[7-(3-Chloro-benzyl)-5,6-dimethyl-7H-pyrrolo[2,3-d]pyrimidin-4-ylamino]-ethyl}-phenyl)-1,1-diethyl-urea], with 112.9 to 113.3 °C.
Then `Clc1ccccc1CCNc1ncnc2c1ccn2Cc1cncc(Br)c1` [Example 36, [7-(5-Bromo-pyridin-3-ylmethyl)-7H-pyrrolo[2,3-d]pyrimidin-4-yl]-[2-(2-chloro-phenyl)-ethyl]-amine], with 114 to 115 °C; and `COc1ccc(CCNc2ncnc3c2c(C)c(C)n3CCCN(C)C)cc1OC` (as salt: salt) [Example 15, [2-(3,4-Dimethoxy-phenyl)-ethyl]-[7-(3-dimethylamino-propyl)-5,6-dimethyl-7H-pyrrolo[2,3-d]pyrimidin-4-yl]-amine], with 156 to 158.2 °C.
The result for `CCN(CC)C(=O)Nc1ccc(CCNc2ncnc3c2c(C)c(C)n3Cc2ccccc2)cc1` [Example 53, 3-{4-[2-(7-Benzyl-5,6-dimethyl-7H-pyrrolo[2,3-d]pyrimidin-4-ylamino)-ethyl]-phenyl}-1,1-diethyl-urea] reads 138.5 to 139 °C; that for `Oc1ccc(CCNc2ncnc3c2ccn3Cc2ccccc2)cc1` [Example 60, 4-[2-(7-Benzyl-7H-pyrrolo[2,3-d]pyrimidin-4-ylamino)-ethyl]-phenol], 199.2 to 200.6 °C.
As for `CC(=O)Nc1ccc(CCNc2ncnc3c2ccn3Cc2ccccc2)cc1` [Example 47, N-{4-[2-(7-Benzyl-7H-pyrrolo[2,3-d]pyrimidin-4-ylamino)-ethyl]-phenyl}-acetamide], the melting point is 228 to 229.5 °C.
Then `Cc1c(C)n(CCCN(C)C)c2ncnc(NCCc3ccccc3)c12` (as salt: salt) [Example 14, [7-(3-Dimethylamino-propyl)-5,6-dimethyl-7H-pyrrolo[2,3-d]pyrimidin-4-yl]-phenethyl-amine], with 236 to 238 °C; and `CC(=O)Nc1ccc(CCNc2ncnc3c2c(C)c(C)n3Cc2cccc(Cl)c2)cc1` [Example 45, N-(4-{2-[7-(3-Chloro-benzyl)-5,6-dimethyl-7H-pyrrolo[2,3-d]pyrimidin-4-ylamino]-ethyl}-phenyl)-acetamide], with 186.1 to 187.2 °C.
Then `Cc1c(C)n(Cc2ccccc2)c2ncnc(NCCc3cccc(F)c3)c12` [Example 43, (7-Benzyl-5,6-dimethyl-7H-pyrrolo[2,3-d]pyrimidin-4-yl)-[2-(3-fluoro-phenyl)-ethyl]-amine], with 237.6 to 240 °C; and `OC(CNc1ncnc2c1ccn2Cc1ccccc1)c1ccccc1` (centres unmarked) [Example 29, 2-(7-Benzyl-7H-pyrrolo[2,3-d]pyrimidin-4-ylamino)-1-phenyl-ethanol], with 195 to 197 °C; and `Fc1cccc(CCNc2ncnc3c2ccn3Cc2ccccc2)c1` [Example 27, (7-Benzyl-7H-pyrrolo[2,3-d]pyrimidin-4-yl)-[2-(3-fluoro-phenyl)-ethyl]-amine], with 116 to 117.5 °C.
Then `Cc1c(C)n(Cc2ccccc2)c2ncnc(NCCc3ccc(N(C)C)cc3)c12` [Example 62, (7-Benzyl-5,6-dimethyl-7H-pyrrolo[2,3-d]pyrimidin-4-yl)-[2-(4-dimethylamino-phenyl)-ethyl]-amine], with 95 to 96.6 °C.

The values are drawn from patent publication US10344032B2, “Agents for treating neurogenic inflammation and neuropathic hyperalgesia related disorders” (PÉCSI TUDOMÁNYEGYETEM, priority 2014, dated 2019).
